Test results: ChEMBL document CHEMBL1142480, “Use of the X-ray structure of the beta2-adrenergic receptor for drug discovery. Part 2: Identification of active compounds” (Bioorg Med Chem Lett, 2008)

target: Beta-2 adrenergic receptor (Homo sapiens, UniProt P07550)
Sequence (P07550 whole entry): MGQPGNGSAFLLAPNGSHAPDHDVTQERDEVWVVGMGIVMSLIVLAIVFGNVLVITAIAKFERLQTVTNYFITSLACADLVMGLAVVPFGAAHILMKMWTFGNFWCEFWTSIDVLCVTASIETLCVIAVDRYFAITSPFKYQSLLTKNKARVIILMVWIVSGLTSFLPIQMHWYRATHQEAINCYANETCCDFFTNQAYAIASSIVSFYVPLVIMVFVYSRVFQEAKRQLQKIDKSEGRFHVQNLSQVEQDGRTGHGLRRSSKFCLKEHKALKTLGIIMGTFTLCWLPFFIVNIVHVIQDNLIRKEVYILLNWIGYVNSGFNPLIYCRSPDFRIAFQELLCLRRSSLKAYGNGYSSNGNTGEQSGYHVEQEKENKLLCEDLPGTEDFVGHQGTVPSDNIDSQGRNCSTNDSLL
Description: Displacement of [3H]DHA from human beta2 adrenoceptor by liquid scintillation counter

SMILES	Ki
N#Cc1cc2c(OCC(O)CN3CCN(C(c4ccccc4)c4ccccc4)CC3)cccc2[nH]1 (centres undefined)	57.3 nM
CC(C)(C)NCC(O)COc1cccc2oc3ccccc3c12 (centres undefined)	0.145 nM
Cc1c[nH]c2cccc(OCC(O)CN3CCN(C(c4ccccc4)c4ccccc4)CC3)c12 (centres undefined)	0.311 nM
CC(C)(C)NCC(O)COc1cccc2[nH]cc(CC(N)=O)c12 (centres undefined)	23.5 nM
